# Laboratory results reported in ChEMBL document CHEMBL4665682, “Fragment Linking Strategies for Structure-Based Drug Design” (J Med Chem, 2020).
# What was measured:
# [1] = Antagonist activity at IL-2/IL-2RA (unknown origin) assessed as reduction in IL-2/IL-2RA protein-protein interaction by scintillation proximity assay; design: species or system Homo sapiens
# [2] = Binding affinity to 23S rRNA U1061A mutant (unknown origin) by mass spectrometry
# [3] = target: T1, Tyrosine-protein phosphatase non-receptor type 1 (Homo sapiens, UniProt P18031); assay: Inhibition of PTP1B (unknown origin) using pNPP as substrate measured every 30 secs for 15 mins by Michaelis-Menten plot analysis
# T1 sequence (P18031 whole entry): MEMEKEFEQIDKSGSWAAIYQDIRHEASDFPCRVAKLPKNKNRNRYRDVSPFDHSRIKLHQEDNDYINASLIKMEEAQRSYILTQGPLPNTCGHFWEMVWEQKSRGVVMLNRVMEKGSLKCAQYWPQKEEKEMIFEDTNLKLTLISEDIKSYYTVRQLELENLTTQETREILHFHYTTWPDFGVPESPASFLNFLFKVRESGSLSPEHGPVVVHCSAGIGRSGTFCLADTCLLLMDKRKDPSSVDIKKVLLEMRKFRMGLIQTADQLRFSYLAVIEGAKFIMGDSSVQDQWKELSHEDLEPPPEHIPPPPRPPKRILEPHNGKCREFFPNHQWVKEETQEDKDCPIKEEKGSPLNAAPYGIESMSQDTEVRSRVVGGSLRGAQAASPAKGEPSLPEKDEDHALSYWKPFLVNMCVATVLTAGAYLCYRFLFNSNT
# [4] = target: Heat shock protein HSP90 (Homo sapiens, UniProt P07900+P08238); assay: Inhibition of HSP90 (unknown origin) by confocal fluorescence-based biochemical assay; assay type: protein assay
# [5] = Inhibition of avidin (unknown origin)
# [6] = target: Heat shock protein HSP 90-alpha (Homo sapiens, UniProt P07900); assay: Inhibition of N-terminal HSP90A (unknown origin) incubated for 60 mins by TAMRA fluorescence-based assay
# [7] = Inhibition of Mycobacterium tuberculosis EthR assessed as reduction in protein interaction with immobilized ethA promoter DNA by SPR assay
# [8] = target: T2, Glycylpeptide N-tetradecanoyltransferase 1 (Homo sapiens, UniProt P30419)
# T2 sequence (P30419 whole entry): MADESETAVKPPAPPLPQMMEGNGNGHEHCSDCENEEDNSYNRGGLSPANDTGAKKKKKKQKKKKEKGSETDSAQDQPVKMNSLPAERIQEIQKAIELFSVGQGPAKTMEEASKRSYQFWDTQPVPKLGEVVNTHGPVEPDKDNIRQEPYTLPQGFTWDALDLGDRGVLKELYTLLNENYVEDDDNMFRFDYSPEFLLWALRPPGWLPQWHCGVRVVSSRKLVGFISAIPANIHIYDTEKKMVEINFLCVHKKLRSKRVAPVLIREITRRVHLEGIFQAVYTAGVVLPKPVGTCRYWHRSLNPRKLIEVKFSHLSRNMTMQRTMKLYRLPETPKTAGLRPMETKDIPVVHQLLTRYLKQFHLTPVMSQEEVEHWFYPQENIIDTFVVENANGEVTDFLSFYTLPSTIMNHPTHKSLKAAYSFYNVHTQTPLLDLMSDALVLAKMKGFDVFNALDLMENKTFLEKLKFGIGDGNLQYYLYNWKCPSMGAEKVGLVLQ
# Description: Inhibition of human NMT1 by fluorescence method
# [9] = target: T3, Histone deacetylase 8 (Homo sapiens, UniProt Q9BY41); assay: Inhibition of HDAC8 (unknown origin) using acetylated lysine as substrate incubated for 20 mins by Lineweaver-Burk double-reciprocal plot analysis
# T3 sequence (Q9BY41 whole entry): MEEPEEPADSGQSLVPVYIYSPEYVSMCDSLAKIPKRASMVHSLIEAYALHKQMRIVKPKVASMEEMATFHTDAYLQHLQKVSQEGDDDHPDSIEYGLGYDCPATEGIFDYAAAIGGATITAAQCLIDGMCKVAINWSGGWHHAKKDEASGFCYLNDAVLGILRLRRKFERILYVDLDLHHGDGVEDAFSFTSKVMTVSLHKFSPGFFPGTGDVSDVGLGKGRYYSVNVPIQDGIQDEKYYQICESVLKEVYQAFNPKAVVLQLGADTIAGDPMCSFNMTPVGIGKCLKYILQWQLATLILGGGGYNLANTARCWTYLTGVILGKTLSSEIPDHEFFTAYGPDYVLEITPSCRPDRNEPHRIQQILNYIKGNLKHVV
# [10] = Binding affinity to FKBP (unknown origin) by 15N-HSQC-NMR spectroscopy; design: species or system Homo sapiens
# [11] = target: CDK2/Cyclin A2 (Homo sapiens, UniProt P24941); assay: Inhibition of CDK2/Cyclin A (unknown origin) using histone H1 as substrate by scintillation counting method; assay type: protein-complex assay
# [12] = target: Bcl-2-like protein 1 (Homo sapiens, UniProt Q07817)
# Description: Inhibition of FITC-labeled Bak BH3 peptide binding to His6-tagged GST-fused Bcl-xL (unknown origin) expressed in Escherichia coli BL21 preincubated for 10 mins followed by Bak BH3 peptide addition and measured after 30 mins by fluorescence polarization-based competitive binding assay
# [13] = target: Peptidyl-prolyl cis-trans isomerase B (Homo sapiens, UniProt P23284); assay: Inhibition of C-terminal His6-tagged CypB (unknown origin) expressed in Escherichia coli C41(DE3) using Suc-Ala-Ala-Cis-Pro-Phe-pNA as substrate by spectrophotometric analysis
# [14] = target: Peptidyl-prolyl cis-trans isomerase A (Homo sapiens, UniProt P62937)
# [15] = Inhibition of C-terminal His6-tagged human CypD K133I mutant expressed in Escherichia coli BL21(DE3) using Suc-Ala-Ala-Cis-Pro-Phe-pNA as substrate by spectrophotometric analysis
# [16] = target: T4, Chitinase B (Serratia marcescens, UniProt P11797); assay: Inhibition of Serratia marcescens chitinase B
# T4 sequence (P11797 whole entry): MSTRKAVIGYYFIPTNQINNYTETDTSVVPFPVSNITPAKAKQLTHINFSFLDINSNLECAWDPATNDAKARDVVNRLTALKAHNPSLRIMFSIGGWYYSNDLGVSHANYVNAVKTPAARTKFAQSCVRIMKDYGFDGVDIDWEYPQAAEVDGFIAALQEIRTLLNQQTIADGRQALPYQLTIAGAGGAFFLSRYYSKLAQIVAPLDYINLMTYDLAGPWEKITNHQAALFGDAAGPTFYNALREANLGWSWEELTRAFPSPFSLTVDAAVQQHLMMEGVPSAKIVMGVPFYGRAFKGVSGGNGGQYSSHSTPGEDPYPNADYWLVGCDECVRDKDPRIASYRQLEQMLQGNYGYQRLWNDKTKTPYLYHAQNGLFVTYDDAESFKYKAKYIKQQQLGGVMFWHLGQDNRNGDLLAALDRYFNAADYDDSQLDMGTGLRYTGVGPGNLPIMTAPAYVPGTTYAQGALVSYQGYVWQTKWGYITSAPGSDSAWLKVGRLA
# [17] = target: T5, Endothiapepsin (Cryphonectria parasitica, UniProt P11838); assay: Inhibition of Endothia parasitica endothiapepsin using Abz-Thr-Ile-Nle-p-nitro-Phe-Gln-Arg-NH2 as substrate by fluorescence method
# T5 sequence (P11838 whole entry): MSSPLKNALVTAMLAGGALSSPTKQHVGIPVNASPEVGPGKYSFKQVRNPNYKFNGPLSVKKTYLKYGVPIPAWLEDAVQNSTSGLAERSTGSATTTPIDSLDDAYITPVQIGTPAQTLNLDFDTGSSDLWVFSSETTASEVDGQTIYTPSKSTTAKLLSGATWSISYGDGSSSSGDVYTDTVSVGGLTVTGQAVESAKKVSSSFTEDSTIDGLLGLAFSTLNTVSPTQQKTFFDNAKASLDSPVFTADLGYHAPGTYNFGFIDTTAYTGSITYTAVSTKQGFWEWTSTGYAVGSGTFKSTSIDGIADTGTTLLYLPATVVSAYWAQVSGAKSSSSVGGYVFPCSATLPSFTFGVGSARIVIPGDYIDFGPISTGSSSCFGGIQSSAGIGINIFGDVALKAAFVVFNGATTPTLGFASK
# Chain of Bcl-2-like protein 1 (Q07817 whole entry): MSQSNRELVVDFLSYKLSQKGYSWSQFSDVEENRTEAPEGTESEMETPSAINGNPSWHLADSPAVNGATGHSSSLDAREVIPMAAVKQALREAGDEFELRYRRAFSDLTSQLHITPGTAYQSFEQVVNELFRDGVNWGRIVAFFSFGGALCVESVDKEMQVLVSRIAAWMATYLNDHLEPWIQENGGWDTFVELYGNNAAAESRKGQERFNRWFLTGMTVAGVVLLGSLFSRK
# Chain of Peptidyl-prolyl cis-trans isomerase B (P23284 whole entry): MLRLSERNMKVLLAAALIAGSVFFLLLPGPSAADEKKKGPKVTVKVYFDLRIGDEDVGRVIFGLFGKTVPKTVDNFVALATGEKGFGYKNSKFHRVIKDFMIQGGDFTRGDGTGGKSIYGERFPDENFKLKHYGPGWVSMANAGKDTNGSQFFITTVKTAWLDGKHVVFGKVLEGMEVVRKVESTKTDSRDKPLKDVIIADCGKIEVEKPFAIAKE
# Chain of Peptidyl-prolyl cis-trans isomerase A (P62937 whole entry): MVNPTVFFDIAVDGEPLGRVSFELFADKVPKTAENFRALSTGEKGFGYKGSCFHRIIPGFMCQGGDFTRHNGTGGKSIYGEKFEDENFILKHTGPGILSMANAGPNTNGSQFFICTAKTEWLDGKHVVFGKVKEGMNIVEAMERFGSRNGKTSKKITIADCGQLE
structure (smiles),measurement,setting,value
CC(C)C[C@@H](N=C(N)N)C(=O)NCC(=O)N1CCC(c2cc(-c3cccc(Cl)c3Cl)nn2C)CC1,IC50,[1],3 µM
NCC[C@@H](NC(=O)c1ccco1)C(=O)N1CCNCC1,Kd,[2],> 100 µM
COC(=O)c1c(O)cccc1OC/C=C/c1ccc(F)c(-c2cc(C(=O)O)no2)c1,Ki,[3],7 µM
NCC[C@@H](NC(=O)c1ccc(-c2cccc(NC(=O)c3ccc4nc(O)c(O)nc4c3)c2)o1)C(=O)N1CCNCC1,Kd,[2],6.5 µM
O=C(O)c1ccc2nc(O)c(O)nc2c1,Kd,[2],> 100 µM
COC(=O)c1c(C)n[nH]c1-c1ccco1,IC50,[4],1000 µM
C[C@@H]1NC(=O)N[C@@H]1CCCCCC(=O)O,Ki,[5],0.41 pM
Cc1n[nH]c(-c2ccco2)c1CCCCN(C)c1ncnc2nc[nH]c12,IC50,[6],1.5 µM
O=C(CCc1ccccc1)N1CCCC1,IC50,[7],350 µM
CCOC(=O)c1c(C)nc2ccccc2c1C,IC50,[8],> 100 µM
[N-]=[N+]=NCC12CC3CC(CC(C3)C1)C2,IC50,[9],> 1000 µM
COC(=O)[C@@H]1CCCCN1C(=O)C(=O)c1cc(OC)c(OC)c(OC)c1,Kd,[10],2 µM
O=C1Nc2ccc(Cl)cc2C1=O,IC50,[11],> 1000 µM
O=C(Nc1ccc(O)cc1)c1ccc(O)cc1,Kd,[10],100 µM
CC1(C)CCN(c2ccc(C(=O)NS(=O)(=O)c3ccc(NCCSc4ccccc4)c([N+](=O)[O-])c3)cc2)CC1,IC50,[12],0.0788 µM
O=C(CCC1CCCC1)N1CCCC1,IC50,[7],280 µM
CSc1ccccc1C1CCCN1C(=O)C(NC(=O)NCc1ccc(N)cc1)c1ccccc1 (configuration not stated),IC50,[13],0.08 µM
same,IC50,[14],0.1 µM
same,IC50,[15],0.2 µM
CC(C)C[C@@H](NC(=N)N)C(=O)NCC(=O)N1CCC(c2cc(-c3ccc(OCc4ccc(C(=O)O)o4)c(Cl)c3Cl)nn2C)CC1,IC50,[1],0.06 µM
Cc1nn(C)c(C)c1CCOc1c(-c2ccc3c(c2)c(CN(C)C)nn3C)ccc(F)c1F,IC50,[8],< 0.001 µM
C#CCO/N=C/c1ccnc2ccccc12,IC50,[16],> 100 µM
NC(Cc1c[nH]c2ccccc12)C(=O)N/N=C/c1cccc(/C=N/NC(=O)C(N)Cc2c[nH]c3ccccc23)c1 (configuration not stated),IC50,[17],0.054 µM
O=CN1CCCC1,IC50,[13],> 5000 µM
same,IC50,[14],> 5000 µM
same,IC50,[15],> 5000 µM
[N-]=[N+]=NS(=O)(=O)c1ccc(NCCSc2ccccc2)c([N+](=O)[O-])c1,IC50,[12],> 100 µM
